# Reference: patent US11938129B2, “Methods and compositions for the treatment of vascular disease” (THE GENERAL HOSPITAL CORPORATION, priority 2018, dated 2024)
# “Also recorded” adds a separate entry of the source.
# What was measured:
# H3K27me3 = H3K27me3 staining in aortas of treated Fbn1C1039G/+ mice; format: in vivo, mouse; conditions: compared to control or losartan treated mice
# Protocol: Latex was injected into the left ventricular apex under low pressure until it was visible in the femoral artery. Animals were then fixed in Formalin (10%) for 24 hours before transfer to 70% ethanol for dissection and storage. Aortas were then removed from the animals or dissected in situ for photography prior to paraffinization and sectioning (10 pM). Slides were produced for tissue staining or stained with standard stains including H&E staining, collagen deposition (Trichrome Stain (Masson) Kit, Sigma, USA), elastin (Verhoeff-Van Gieson, Thermo Scientific, MI, USA) or F-actin (ActinGreen™ 488 ReadyProbes, ThermoFisher Scientific, USA) for quantitative analysis. Elastin integrity score was rated by blinded observers and graded on an arbitrary scale of 5 (indicating high quality elastic fiber) to 1 (indicating severe elastin fragmentation). For nuclear staining aortas from human and mice were cryosectioned using OCT standard protocol as described previously (Fischer et al., 2008). Cohorts of 8-week-old wild-type or Fbn1cw3gGi+ mice were treated with oral administration in drinking water of either Losartan or GSK343 for 20 weeks (FIG. 5). […] Then 200 mL of drinking water was supplemented with 250 pL of GSK343 stock solution. […] Aortic dimensions were monitored monthly by echocardiograms as mentioned above.
# VSMC phenotypic markers = test: expression of VSMC phenotypic markers in aortas of treated Fbn1C1039G/+ mice; format: in vivo, mouse; conditions: aortas of Fbn1C1039G/+ mice treated from two to six months
# Protocol: Total RNA was prepared from tissue or primary cells using RNeasy kit (Qiagen) following the manufacturer's protocol. The cDNA was prepared by reverse transcription, and expression of SMC contractile genes were analyzed by qRT-PCR on SYBR green system (Applied Biosystem, Foster city, CA). 50 pL of plasma from wild-type or Fbn1cl° 39G1+ mice were used to prepare total RNA as mentioned above. Expression results were analyzed by the ddCT method and GAPDH (encoding glyceraldehyde-3-phosphate dehydrogenase) was used as a housekeeping gene. Fold change were calculated by taking the average over all the control samples as the baseline. […] The supernatant was removed and the vesicular fraction was resuspended with 750 pL of TRizol reagent followed by RNA extraction using the RNeasy kit (Qiagen) according to the manufacturer's protocol. Cohorts of 8-week-old wild-type or Fbn1cw3gGi+ mice were treated with oral administration in drinking water of either Losartan or GSK343 for 20 weeks (FIG. 5). […] Then 200 mL of drinking water was supplemented with 250 pL of GSK343 stock solution. Control group for either drug treatment was given with equal volumes of sterile water. Bottles containing either losartan or GSKS343 were replaced with fresh water supplied with drugs every 3 days. For experiments described in FIG. 5A-5C, 16-week-old wild-type or Fbnicw3gGi+ mice were treated for 8 weeks and as described above. Additionally, a group of mice were given a combination of both losartan and GSK343 at the same concentrations as of other single drug treatments. Aortic dimensions were monitored monthly by echocardiograms as mentioned above.
# [1] = tested on: aortic aneurysm in Fbn1C1039G/+ mice; test: experimental aortic aneurysm in Fbn1C1039G/+ mice: echocardiographic aortic dimensions; format: in vivo, mouse; conditions: Fbn1C1039G/+ mice treated from two to six months of life, drinking water
# Text: Dimensions from each animal represent averages of measurements made on still frames in systole of the maximal internal diameter of the aortic valve annulus, aortic sinuses, sinotubular junction, or ascending aorta by a cardiologist blinded to genotype. The aorta was imaged using a standard parasternal long axis view. Based on historic controls, the mean diameter of the wild type aortic root at 4 months of life is 1.73+/-0.2 mm while in our disease model (Fbn1ci°[…]/+) the mean diameter is 2.15+/-0.3 mm. […] Nair hair removal cream was used on all mice the day prior to echocardiograms. All echocardiograms were performed on awake, unsedated mice using the Visualsonics Vevo imaging system and a 30 MHz transducer. All CT images were acquired using an Inveon small animal micro CT (Siemens Medical Solutions Inc., Malven, Pa.). All mice received intravenous iodinated contrast (Isovue-370, Bracco Diagnostic Inc.) at 20 pL/min during the scan. […] Images were visualized and analyzed in OsiriX software. Cohorts of 8-week-old wild-type or Fbn1cw3gGi+ mice were treated with oral administration in drinking water of either Losartan or GSK343 for 20 weeks (FIG. 5). […] Then 200 mL of drinking water was supplemented with 250 pL of GSK343 stock solution. […] Aortic dimensions were monitored monthly by echocardiograms as mentioned above.
# [2] = tested on: H3K27 methylation in HCC1806 cells; conditions: read-out: IC50 for inhibition of H3K27 methylation; cited from earlier work
# [3] = tested on: aortic wall of Fbn1C1039G/+ mice; test: histologic analysis of aortas of treated Fbn1C1039G/+ mice; format: in vivo, mouse; conditions: aortas of Fbn1C1039G/+ mice treated from two to six months
# Protocol: Latex was injected into the left ventricular apex under low pressure until it was visible in the femoral artery. Animals were then fixed in Formalin (10%) for 24 hours before transfer to 70% ethanol for dissection and storage. Aortas were then removed from the animals or dissected in situ for photography prior to paraffinization and sectioning (10 pM). Slides were produced for tissue staining or stained with standard stains including H&E staining, collagen deposition (Trichrome Stain (Masson) Kit, Sigma, USA), elastin (Verhoeff-Van Gieson, Thermo Scientific, MI, USA) or F-actin (ActinGreen™ 488 ReadyProbes, ThermoFisher Scientific, USA) for quantitative analysis. Elastin integrity score was rated by blinded observers and graded on an arbitrary scale of 5 (indicating high quality elastic fiber) to 1 (indicating severe elastin fragmentation). For nuclear staining aortas from human and mice were cryosectioned using OCT standard protocol as described previously (Fischer et al., 2008). Cohorts of 8-week-old wild-type or Fbn1cw3gGi+ mice were treated with oral administration in drinking water of either Losartan or GSK343 for 20 weeks (FIG. 5). […] Then 200 mL of drinking water was supplemented with 250 pL of GSK343 stock solution. Control group for either drug treatment was given with equal volumes of sterile water. Bottles containing either losartan or GSKS343 were replaced with fresh water supplied with drugs every 3 days. For experiments described in FIG. 5A-5C, 16-week-old wild-type or Fbnicw3gGi+ mice were treated for 8 weeks and as described above. Additionally, a group of mice were given a combination of both losartan and GSK343 at the same concentrations as of other single drug treatments. Aortic dimensions were monitored monthly by echocardiograms as mentioned above.
smiles,measurement,setting,value
CCCc1cc(C)[nH]c(=O)c1CNC(=O)c1cc(-c2ccnc(N3CCN(C)CC3)c2)cc2c1cnn2C(C)C [GSK343],H3K27me3 staining / aortic medial H3K27me3 modifications,H3K27me3,significant suppression of H3K27me3 staining; also recorded: significantly decreased
same,contractile elements,VSMC phenotypic markers,better recovery of contractile elements
same,"synthetic markers (Col1a1, Col3a1, Gja1, Mmp2)",VSMC phenotypic markers,inability to repress synthetic markers
same,aortic dimensions,[1],ability to improve aortic dimensions
same,IC50,[2],< 200 nM
same,aortic architecture and filamentous actin content,[3],improvement
same,elastin integrity,[3],not a significant improvement in elastin fiber integrity
